In patent publication US20240384350A1, “METHODS OF TREATING CANCER WITH KINASE INHIBITORS” (BOARD OF REGENTS, THE UNIVERSITY OF TEXAS SYSTEM, priority 2021, published 2024):

Assays:
Experiment in all cases: Ba/F3 drug screening, Cell Titer Glo, IC50 Mut/WT
Assay type in all cases: cell-based
EGFR E709K L858R = molecular target: T1, EGFR E709K L858R (Homo sapiens, UniProt P00533, E709K/L858R); details: Classical-Like, 72 hours
T1 construct: expressed in transfected cells; host or cells: Ba/F3 cells, retroviral pBabe-Puro vector

EGFR L833F = molecular target: T2, EGFR L833F (Homo sapiens, UniProt P00533, L833F); details: Classical-Like, 72 hours
T2 construct: expressed in transfected cells; host or cells: Ba/F3 cells, retroviral pBabe-Puro vector

EGFR Ex19del = molecular target: T3, EGFR Ex19del (Homo sapiens, UniProt P00533, DEL746-750); details: Classical-Like, 72 hours
T3 construct: expressed in transfected cells; host or cells: Ba/F3 cells, retroviral pBabe-Puro vector
Experimental: (§1) Data represent the ratio of the IC50 value for a given TKI for cells with a classical-like EGFR mutation to the IC50 value for cells with wildtype EGFR.
(§2) Ba/F3 cell generation, drug screening, and IC50 approximations. Ba/F3 cells were obtained as a gift from Dr. Gordon Mills (MD Anderson Cancer Center), and maintained in RPMI (Sigma) containing 10% FBS, 1% penicillin/streptomycin, and 10 ng/ml recombinant mIL-3 (R&D Biosystems). To establish stable Ba/F3 cell lines, Ba/F3 cells were transduced with retroviruses containing mutant EGFR plasmids for 12-24 hours.
(§3) After 48-72 hours of transduction, 2 μg/ml puromycin (Invitrogen) was added to Ba/F3 cell lines in complete RPMI. To select for EGFR positive cell lines, cells were stained with PE-EGFR (Biolegend) and sorted by FACS. After sorting, EGFR positive cells were maintained in RPMI containing 10% FBS, 1% penicillin/streptomycin, and 1 ng/ml EGF to support cell viability. […] Shortly, cells were plated in 384-well plates (Greiner Bio-One) at 2000-3000 cells per well in technical triplicate. Seven different concentrations of TKIs or DMSO vehicle were added to reach a final volume of 40 μL per well. After 72 hours, 11 μL of Cell Titer Glo (Promega) was added to each well. Plates were incubated for a minimum of 10 minutes, and bioluminescence was determined using a FLUOstar OPTIMA plate reader (BMG LABTECH). Raw bioluminescence values were normalized to DMSO control treated cells, and values were plotted in GraphPad Prism. […] Drug screens were performed in technical triplicate on each plate and either duplicate or triplicate biological replicates.

EGFR L858R S784F = molecular target: T4, EGFR L858R S784F (Homo sapiens, UniProt P00533, L858R/S784F); details: Classical-Like, 72 hours
T4 construct: expressed in transfected cells; host or cells: Ba/F3 cells, retroviral pBabe-Puro vector (vector made by GeneScript from EGFR L858R)
Experimental: as §1, §2, §3

EGFR S720P = molecular target: T5, EGFR S720P (Homo sapiens, UniProt P00533, S720P); details: Classical-Like, 72 hours
T5 construct: expressed in transfected cells; host or cells: Ba/F3 cells, retroviral pBabe-Puro vector (vector made by GeneScript from EGFR WT)
Experimental: as §1, §2, §3

EGFR L861Q = molecular target: T6, EGFR L861Q (Homo sapiens, UniProt P00533, L861Q); details: Classical-Like, 72 hours
T6 construct: expressed in transfected cells; host or cells: Ba/F3 cells, retroviral pBabe-Puro vector
Experimental: as §1, §2, §3

EGFR A763insFQEA = molecular target: T7, EGFR A763insFQEA (Homo sapiens, UniProt P00533, INS763FQEA); details: Classical-Like, 72 hours
T7 construct: expressed in transfected cells; host or cells: Ba/F3 cells, retroviral pBabe-Puro vector
Experimental: as §1, §2, §3

EGFR A763insLQEA = molecular target: T8, EGFR A763insLQEA (Homo sapiens, UniProt P00533, INS763LQEA); details: Classical-Like, 72 hours
T8 construct: expressed in transfected cells; host or cells: Ba/F3 cells, retroviral pBabe-Puro vector
Experimental: as §1, §2, §3

EGFR S768dupSVD = molecular target: T9, EGFR S768dupSVD (Homo sapiens, UniProt P00533, DUP768-770); details: Ex20, 72 hours
T9 construct: expressed in transfected cells; host or cells: Ba/F3 cells, retroviral pBabe-Puro vector
Experimental: (§4) Data represent the ratio of the IC50 value for a given TKI for cells with an ex20ins EGFR mutation to the IC50 value for cells with wildtype EGFR.
as §2
(§5) After 48-72 hours of transduction, 2 μg/ml puromycin (Invitrogen) was added to Ba/F3 cell lines in complete RPMI. To select for EGFR positive cell lines, cells were stained with PE-EGFR (Biolegend) and sorted by FACS. After sorting, EGFR positive cells were maintained in RPMI containing 10% FBS, 1% penicillin/streptomycin, and 1 ng/ml EGF to support cell viability. Drug screening was performed as previously described^41,42. Shortly, cells were plated in 384-well plates (Greiner Bio-One) at 2000-3000 cells per well in technical triplicate. Seven different concentrations of TKIs or DMSO vehicle were added to reach a final volume of 40 μL per well. After 72 hours, 11 μL of Cell Titer Glo (Promega) was added to each well. Plates were incubated for a minimum of 10 minutes, and bioluminescence was determined using a FLUOstar OPTIMA plate reader (BMG LABTECH). Raw bioluminescence values were normalized to DMSO control treated cells, and values were plotted in GraphPad Prism. […] Drug screens were performed in technical triplicate on each plate and either duplicate or triplicate biological replicates. […] Statistical differences between groups were determined by ANOVA as described in the figure legends.

EGFR H773insNPH = molecular target: T10, EGFR H773insNPH (Homo sapiens, UniProt P00533, INS773NPH); details: Ex20, 72 hours
T10 construct: expressed in transfected cells; host or cells: Ba/F3 cells, retroviral pBabe-Puro vector

EGFR N771dupN G724S = molecular target: T11, EGFR N771dupN G724S (Homo sapiens, UniProt P00533, DUP771-771/G724S); details: Ex20, 72 hours
T11 construct: expressed in transfected cells; host or cells: Ba/F3 cells, retroviral pBabe-Puro vector (vector made by GeneScript from EGFR G724S, c.2313_2314insAAC)
Experimental: as §4, §2, §5

EGFR T790M = molecular target: T12, EGFR T790M (Homo sapiens, UniProt P00533, T790M); details: T790M-like-3S, 72 hours
T12 construct: expressed in transfected cells; host or cells: Ba/F3

EGFR Ex19del T790M = molecular target: T13, EGFR Ex19del T790M (Homo sapiens, UniProt P00533, DEL746-750/T790M); details: T790M-like-3S, 72 hours
T13 construct: expressed in transfected cells; host or cells: Ba/F3
Experimental: Data represent the ratio of the IC50 value for a given TKI for cells with a T790M-like-3S EGFR mutation to the IC50 value for cells with wildtype EGFR.
as §2
(§6) After 48-72 hours of transduction, 2 μg/ml puromycin (Invitrogen) was added to Ba/F3 cell lines in complete RPMI. To select for EGFR positive cell lines, cells were stained with PE-EGFR (Biolegend) and sorted by FACS. After sorting, EGFR positive cells were maintained in RPMI containing 10% FBS, 1% penicillin/streptomycin, and 1 ng/ml EGF to support cell viability. Drug screening was performed as previously described^41,42. Shortly, cells were plated in 384-well plates (Greiner Bio-One) at 2000-3000 cells per well in technical triplicate. Seven different concentrations of TKIs or DMSO vehicle were added to reach a final volume of 40 μL per well. After 72 hours, 11 μL of Cell Titer Glo (Promega) was added to each well. Plates were incubated for a minimum of 10 minutes, and bioluminescence was determined using a FLUOstar OPTIMA plate reader (BMG LABTECH). Raw bioluminescence values were normalized to DMSO control treated cells, and values were plotted in GraphPad Prism. […] Drug screens were performed in technical triplicate on each plate and either duplicate or triplicate biological replicates.

EGFR G719S T790M = molecular target: T14, EGFR G719S T790M (Homo sapiens, UniProt P00533, G719S/T790M); details: T790M-like-3S, 72 hours
T14 construct: expressed in transfected cells; host or cells: Ba/F3

EGFR L718Q T790M = molecular target: T15, EGFR L718Q T790M (Homo sapiens, UniProt P00533, L718Q/T790M); details: T790M-like-3R, 72 hours
T15 construct: expressed in transfected cells; host or cells: Ba/F3

EGFR L858R T790M L718V = molecular target: T16, EGFR L858R T790M L718V (Homo sapiens, UniProt P00533, L718V/L858R/T790M); details: T790M-like-3R, 72 hours
T16 construct: expressed in transfected cells; host or cells: Ba/F3

EGFR Ex19del T790M C797S = molecular target: T17, EGFR Ex19del T790M C797S (Homo sapiens, UniProt P00533, C797S/DEL746-750/T790M); details: T790M-like-3R, 72 hours
T17 construct: expressed in transfected cells; host or cells: Ba/F3

EGFR E709_T710del insD = molecular target: T18, EGFR E709_T710del insD (Homo sapiens, UniProt P00533, DEL709-709/T710D)
T18 construct: expressed in transfected cells; host or cells: Ba/F3
Experimental: (§7) Data represent the ratio of the IC50 value for a given TKI for cells with a PACC EGFR mutation to the IC50 value for cells with wildtype EGFR.
as §2, §6

EGFR E709A G719S = molecular target: T19, EGFR E709A G719S (Homo sapiens, UniProt P00533, E709A/G719S)
T19 construct: expressed in transfected cells; host or cells: Ba/F3
Experimental: as §7, §2, §6

EGFR G719S = molecular target: T20, EGFR G719S (Homo sapiens, UniProt P00533, G719S)
T20 construct: expressed in transfected cells; host or cells: Ba/F3

EGFR G719A = molecular target: T21, EGFR G719A (Homo sapiens, UniProt P00533, G719A)
T21 construct: expressed in transfected cells; host or cells: Ba/F3
Experimental: as §7, §2, §6

EGFR G719A L861Q = molecular target: T22, EGFR G719A L861Q (Homo sapiens, UniProt P00533, G719A/L861Q)
T22 construct: expressed in transfected cells; host or cells: Ba/F3
Experimental: as §7, §2, §6

EGFR I740dupIPVAK = system: EGFR I740dupIPVAK
Experimental: as §7, §2, §6

EGFR L747P = molecular target: T23, EGFR L747P (Homo sapiens, UniProt P00533, L747P)
T23 construct: expressed in transfected cells; host or cells: Ba/F3
Experimental: as §7, §2, §5

EGFR V774M = molecular target: T24, EGFR V774M (Homo sapiens, UniProt P00533, V774M)
T24 construct: host or cells: Ba/F3
Experimental: as §7, §2, §6

EGFR R776C = molecular target: T25, EGFR R776C (Homo sapiens, UniProt P00533, R776C)
T25 construct: host or cells: Ba/F3

EGFR L858R/L792H = molecular target: T26, EGFR L858R/L792H (Homo sapiens, UniProt P00533, L792H/L858R)
T26 construct: expressed in transfected cells; host or cells: Ba/F3

SMILES | ratio of IC50 for cells with mutant EGFR to IC50 for cells with wildtype EGFR (Mut/WT) (EGFR E709K L858R) | ratio of IC50 for cells with mutant EGFR to IC50 for cells with wildtype EGFR (Mut/WT) (EGFR L833F) | ratio of IC50 for cells with mutant EGFR to IC50 for cells with wildtype EGFR (Mut/WT) (EGFR Ex19del) | ratio of IC50 for cells with mutant EGFR to IC50 for cells with wildtype EGFR (Mut/WT) (EGFR L858R S784F) | ratio of IC50 for cells with mutant EGFR to IC50 for cells with wildtype EGFR (Mut/WT) (EGFR S720P) | ratio of IC50 for cells with mutant EGFR to IC50 for cells with wildtype EGFR (Mut/WT) (EGFR L861Q) | ratio of IC50 for cells with mutant EGFR to IC50 for cells with wildtype EGFR (Mut/WT) (EGFR A763insFQEA) | ratio of IC50 for cells with mutant EGFR to IC50 for cells with wildtype EGFR (Mut/WT) (EGFR A763insLQEA) | ratio of IC50 for cells with mutant EGFR to IC50 for cells with wildtype EGFR (Mut/WT) (EGFR S768dupSVD) | ratio of IC50 for cells with mutant EGFR to IC50 for cells with wildtype EGFR (Mut/WT) (EGFR H773insNPH) | ratio of IC50 for cells with mutant EGFR to IC50 for cells with wildtype EGFR (Mut/WT) (EGFR N771dupN G724S) | ratio of IC50 for cells with mutant EGFR to IC50 for cells with wildtype EGFR (Mut/WT) (EGFR T790M) | ratio of IC50 for cells with mutant EGFR to IC50 for cells with wildtype EGFR (Mut/WT) (EGFR Ex19del T790M) | ratio of IC50 for cells with mutant EGFR to IC50 for cells with wildtype EGFR (Mut/WT) (EGFR G719S T790M) | ratio of IC50 for cells with mutant EGFR to IC50 for cells with wildtype EGFR (Mut/WT) (EGFR L718Q T790M) | ratio of IC50 for cells with mutant EGFR to IC50 for cells with wildtype EGFR (Mut/WT) (EGFR L858R T790M L718V) | ratio of IC50 for cells with mutant EGFR to IC50 for cells with wildtype EGFR (Mut/WT) (EGFR Ex19del T790M C797S) | other results
C=CC(=O)Nc1cc(Nc2ncc(C(=O)OC(C)C)c(-c3cn(C)c4ccccc34)n2)c(OC)cc1N(C)CCN(C)C [TAK-788 (mobocertinib), mobocertinib] | 0.008356 | 1.233 | 0.02859 | 0.001484 | 0.111 | 0.8467 | 0.473 | 0.03374 | 0.2515 | 0.2952 | 1.553 | 1.315 | 0.2391 | 1.302 | 43.09 | 5.796 | 117.8 | ratio of the IC50 value for cells with a PACC EGFR mutation to the IC50 value for cells with wildtype EGFR (EGFR E709_T710del insD; Ba/F3 cells, EGFR E709_T710del insD (PACC), Mut/WT): 0.0198; ratio of the IC50 value for cells with a PACC EGFR mutation to the IC50 value for cells with wildtype EGFR (EGFR E709A G719S; Ba/F3 cells, EGFR E709A G719S (PACC), Mut/WT): 1.298; ratio of the IC50 value for cells with a PACC EGFR mutation to the IC50 value for cells with wildtype EGFR (EGFR G719S; Ba/F3 cells, EGFR G719S (PACC), Mut/WT): 2.056; ratio of the IC50 value for cells with a PACC EGFR mutation to the IC50 value for cells with wildtype EGFR (EGFR G719A; Ba/F3 cells, EGFR G719A (PACC), Mut/WT): 1.676; ratio of the IC50 value for cells with a PACC EGFR mutation to the IC50 value for cells with wildtype EGFR (EGFR G719A L861Q; Ba/F3 cells, EGFR G719A L861Q (PACC), Mut/WT): 1.066; ratio of the IC50 value for cells with a PACC EGFR mutation to the IC50 value for cells with wildtype EGFR (EGFR I740dupIPVAK; Ba/F3 cells, EGFR I740dupIPVAK (PACC), Mut/WT): 7.185; ratio of the IC50 value for cells with a PACC EGFR mutation to the IC50 value for cells with wildtype EGFR (EGFR L747P; Ba/F3 cells, EGFR L747P (PACC), Mut/WT): 5.991; ratio of the IC50 value for cells with a PACC EGFR mutation to the IC50 value for cells with wildtype EGFR (EGFR V774M; Ba/F3 cells, EGFR V774M (PACC), Mut/WT): 1.453; ratio of the IC50 value for cells with a PACC EGFR mutation to the IC50 value for cells with wildtype EGFR (EGFR R776C; Ba/F3 cells, EGFR R776C (PACC), Mut/WT): 0.04235; ratio of the IC50 value for cells with a PACC EGFR mutation to the IC50 value for cells with wildtype EGFR (EGFR L858R/L792H; Ba/F3 cells, EGFR L858R/L792H (PACC), Mut/WT): 0.0457
COc1cc2ncnc(Nc3cccc(Cl)c3F)c2cc1OC(=O)N1CCN(C)C[C@H]1C [AZD3759] | 0.02202 | 0.1249 | 0.0001195 | 0.01546 | 0.01834 | 0.08924 | 0.02225 | 0.02905 | 3.075 | 1.561 | 1.258 | 21.82 | 12.68 | 8.021 | 9.625 | 4.812 | 9.625 | ratio of IC50 for cells with mutant EGFR to IC50 for cells with wildtype EGFR (Mut/WT) (EGFR E709_T710del insD; PACC, E709_T710del insD, Ba/F3, 72 hours): 0.2123; ratio of IC50 for cells with mutant EGFR to IC50 for cells with wildtype EGFR (Mut/WT) (EGFR E709A G719S; PACC, E709A G719S, Ba/F3, 72 hours): 0.2131; ratio of IC50 for cells with mutant EGFR to IC50 for cells with wildtype EGFR (Mut/WT) (EGFR G719S; PACC, G719S, Ba/F3, 72 hours): 0.01105; ratio of IC50 for cells with mutant EGFR to IC50 for cells with wildtype EGFR (Mut/WT) (EGFR G719A; PACC, G719A, Ba/F3, 72 hours): 0.1002; ratio of IC50 for cells with mutant EGFR to IC50 for cells with wildtype EGFR (Mut/WT) (EGFR G719A L861Q; PACC, G719A L861Q, Ba/F3, 72 hours): 0.07458; ratio of IC50 for cells with mutant EGFR to IC50 for cells with wildtype EGFR (Mut/WT) (EGFR I740dupIPVAK; PACC, I740dupIPVAK, Ba/F3, 72 hours): 0.08984; ratio of IC50 for cells with mutant EGFR to IC50 for cells with wildtype EGFR (Mut/WT) (EGFR L747P; PACC, L747P, Ba/F3, 72 hours): 0.2937; ratio of IC50 for cells with mutant EGFR to IC50 for cells with wildtype EGFR (Mut/WT) (EGFR V774M; PACC, V774M, Ba/F3, 72 hours): 0.3139; ratio of IC50 for cells with mutant EGFR to IC50 for cells with wildtype EGFR (Mut/WT) (EGFR R776C; PACC, R776C, Ba/F3, 72 hours): 0.1522; ratio of IC50 for cells with mutant EGFR to IC50 for cells with wildtype EGFR (Mut/WT) (EGFR L858R/L792H; PACC, L858R/L792H, Ba/F3, 72 hours): 0.03125
